Measured values taken from ChEMBL document CHEMBL1201862, “PubChem BioAssay data set” (2004).
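96-well plates; 48 h exposure; 5 concentrations. Endpoints by linear interpolation between flanking doses. Not reached: highest tested concentration assigned. Abbreviation: GI50, concentration required for 50% inhibition of growth.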 The source made the active and inactive calls. Rule as the data show it: active = GI50 up to about 1.1 µM and inactive = higher.

What was measured:
Test in all cases: inhibition of tumour cell growth, NCI panel, 48 h
DLD-1 = test system: DLD-1
DMS-273 = test system: DMS-273
HOP-18 = test system: HOP-18
KM-20L2 = test system: KM-20L2
LXFL 529 = test system: LXFL 529
RXF 631 = test system: RXF 631
SNB-78 = test system: SNB-78
MDA-MB-231 = test system: MDA-MB-231
MDA-N = test system: MDA-N

CCc1cc2c(Nc3ccccc3)c3c(nc2s1)CCCC3
GI50 (DLD-1): 19.4 µM (inactive) | GI50 (DMS-273): > 100 µM (inactive) | GI50 (HOP-18): > 100 µM (inactive) | GI50 (KM-20L2): > 100 µM (inactive) | GI50 (LXFL 529): 14.2 µM (inactive) | GI50 (RXF 631): 35.2 µM (inactive) | GI50 (SNB-78): 28.9 µM (inactive)

COC(=O)C(=O)C(C(=O)C(=O)Nc1ccccc1C(N)=O)c1nc2ccc([N+](=O)[O-])cc2nc1O (stereo unspecified)
GI50 (DLD-1): > 100 µM (inactive) | GI50 (DMS-273): > 100 µM (inactive) | GI50 (HOP-18): > 100 µM (inactive) | GI50 (KM-20L2): > 100 µM (inactive) | GI50 (LXFL 529): > 100 µM (inactive) | GI50 (RXF 631): > 100 µM (inactive) | GI50 (SNB-78): > 100 µM (inactive)

Cc1ccc(Oc2ccc([N+](=O)[O-])cc2[N+](=O)[O-])c(C)c1
GI50 (DLD-1): 56.4 µM (inactive) | GI50 (DMS-273): 28.1 µM (inactive) | GI50 (KM-20L2): > 10 µM (inactive) | GI50 (LXFL 529): 41 µM (inactive) | GI50 (RXF 631): 21.4 µM (inactive) | GI50 (SNB-78): 61.4 µM (inactive)

COc1cc(-c2nnc3n2NC=C(C(=O)O)S3)cc(OC)c1OC
GI50 (DLD-1): > 57.8 µM (inactive) | GI50 (DMS-273): > 60.3 µM (inactive) | GI50 (HOP-18): > 70.1 µM (inactive) | GI50 (KM-20L2): > 59.2 µM (inactive) | GI50 (LXFL 529): > 71.6 µM (inactive) | GI50 (RXF 631): > 100 µM (inactive) | GI50 (SNB-78): > 100 µM (inactive)

CCC12CCCN(Cc3ccccc3)C1c1c(n(C)c3ccccc13)C(C(=O)OC)C2 (stereo unspecified)
GI50 (DLD-1): 212 µM (inactive) | GI50 (DMS-273): 84.5 µM (inactive) | GI50 (KM-20L2): 130 µM (inactive) | GI50 (LXFL 529): 96.6 µM (inactive) | GI50 (RXF 631): 111 µM (inactive)

CCOC(=O)Cc1nc2ccc3c(c2nc1O)C(=O)c1ccccc1C3=O
GI50 (DLD-1): 23.7 µM (inactive) | GI50 (DMS-273): 40.5 µM (inactive) | GI50 (HOP-18): 16 µM (inactive) | GI50 (KM-20L2): > 100 µM (inactive) | GI50 (LXFL 529): 47.9 µM (inactive) | GI50 (RXF 631): 39.5 µM (inactive) | GI50 (SNB-78): 70.5 µM (inactive)

Cc1cc(Cl)ccc1Nc1nc2c(s1)C(=O)c1ccccc1C2=O
GI50 (DLD-1): 5.45 µM (inactive) | GI50 (DMS-273): 2.52 µM (inactive) | GI50 (HOP-18): 3 µM (inactive) | GI50 (KM-20L2): 18.9 µM (inactive) | GI50 (LXFL 529): 3.67 µM (inactive) | GI50 (MDA-MB-231): 1.3 µM (inactive) | GI50 (MDA-N): 0.604 µM (active) | GI50 (RXF 631): 6.46 µM (inactive) | GI50 (SNB-78): 14.5 µM (inactive)

COc1ccc(/C=C\c2cc(OC)c(OC)c(OC)c2)cc1OCC(=O)O
GI50 (DLD-1): 7.45 µM (inactive) | GI50 (DMS-273): 6.22 µM (inactive) | GI50 (HOP-18): > 100 µM (inactive) | GI50 (KM-20L2): > 100 µM (inactive) | GI50 (LXFL 529): 6.55 µM (inactive) | GI50 (MDA-MB-231): 18 µM (inactive) | GI50 (MDA-N): 2.15 µM (inactive) | GI50 (RXF 631): > 100 µM (inactive) | GI50 (SNB-78): 4.17 µM (inactive)

Cc1ccc(C)c(NC(=O)CC2SC(Nc3ccccc3Cl)=NC2=O)c1 (stereo unspecified)
GI50 (DLD-1): 77.4 µM (inactive) | GI50 (DMS-273): > 100 µM (inactive) | GI50 (HOP-18): > 100 µM (inactive) | GI50 (KM-20L2): > 100 µM (inactive) | GI50 (LXFL 529): 74.3 µM (inactive) | GI50 (RXF 631): > 100 µM (inactive) | GI50 (SNB-78): > 100 µM (inactive)

Cc1ccc(C(=O)Nc2ccc(S(=O)(=O)O)c3cc(S(=O)(=O)O)cc(S(=O)(=O)O)c23)cc1NC(=O)c1cccc(NC(=O)Nc2cccc(C(=O)Nc3cc(C(=O)Nc4ccc(S(=O)(=O)O)c5cc(S(=O)(=O)O)cc(S(=O)(=O)O)c45)ccc3C)c2)c1 [SURAMIN]
GI50 (DLD-1): 97.5 µM (inactive) | GI50 (DMS-273): 39.8 µM (inactive) | GI50 (HOP-18): > 52.4 µM (inactive) | GI50 (KM-20L2): 34.6 µM (inactive) | GI50 (LXFL 529): > 100 µM (inactive) | GI50 (MDA-MB-231): > 100 µM (inactive) | GI50 (MDA-N): > 100 µM (inactive) | GI50 (SNB-78): > 71.3 µM (inactive)

CCCCCCCCCCCCCCCCCc1nnc(N)o1
GI50 (DLD-1): > 100 µM (inactive) | GI50 (DMS-273): > 100 µM (inactive) | GI50 (KM-20L2): > 100 µM (inactive) | GI50 (LXFL 529): > 100 µM (inactive) | GI50 (RXF 631): > 100 µM (inactive) | GI50 (SNB-78): > 100 µM (inactive)

Nc1cc2c3c(cccc3c1)C(=O)N(CCN1CCN(CCN3C(=O)c4cccc5cc(N)cc(c45)C3=O)CC1)C2=O
GI50 (DMS-273): > 100 µM (inactive) | GI50 (HOP-18): > 100 µM (inactive) | GI50 (KM-20L2): > 100 µM (inactive) | GI50 (LXFL 529): 67 µM (inactive) | GI50 (RXF 631): > 100 µM (inactive)

Cc1ccccc1-n1c(C)nc(-c2ccccc2)cc1=O
GI50 (DLD-1): > 100 µM (inactive) | GI50 (DMS-273): > 100 µM (inactive) | GI50 (HOP-18): > 100 µM (inactive) | GI50 (KM-20L2): > 100 µM (inactive) | GI50 (LXFL 529): > 100 µM (inactive) | GI50 (RXF 631): > 100 µM (inactive) | GI50 (SNB-78): > 100 µM (inactive)

O=c1nc(N2CCCC2)nc(N2CCCC2)s1
GI50 (DLD-1): > 100 µM (inactive) | GI50 (DMS-273): > 100 µM (inactive) | GI50 (HOP-18): > 100 µM (inactive) | GI50 (KM-20L2): > 100 µM (inactive) | GI50 (LXFL 529): > 100 µM (inactive) | GI50 (RXF 631): > 100 µM (inactive) | GI50 (SNB-78): > 100 µM (inactive)

O=C1OC(c2ccccc2)=N/C1=C\c1cc(Cl)ccc1Cl
GI50 (DLD-1): 33.8 µM (inactive) | GI50 (HOP-18): > 100 µM (inactive) | GI50 (KM-20L2): > 100 µM (inactive) | GI50 (LXFL 529): 28.5 µM (inactive) | GI50 (RXF 631): 25 µM (inactive) | GI50 (SNB-78): 44.5 µM (inactive)

COc1cc(C2[C@H]3C(=O)N(c4ccc(Cc5ccc(N6C(=O)[C@@H]7ON(c8ccccc8)C(c8cc(OC)c(OC)c(OC)c8)[C@@H]7C6=O)cc5)cc4)C(=O)[C@H]3ON2c2ccccc2)cc(OC)c1OC (stereo partly specified)
GI50 (DLD-1): > 100 µM (inactive) | GI50 (DMS-273): > 100 µM (inactive) | GI50 (HOP-18): > 100 µM (inactive) | GI50 (KM-20L2): > 100 µM (inactive) | GI50 (RXF 631): > 100 µM (inactive) | GI50 (SNB-78): > 100 µM (inactive)

COc1cccc(-c2cc(=O)c3cc(C)c(C)c(C(=O)O)c3o2)c1
GI50 (DLD-1): > 100 µM (inactive) | GI50 (DMS-273): > 100 µM (inactive) | GI50 (KM-20L2): > 100 µM (inactive) | GI50 (LXFL 529): > 100 µM (inactive) | GI50 (RXF 631): > 100 µM (inactive) | GI50 (SNB-78): > 100 µM (inactive)

CC1(C)CC(=O)C(CC2C(=O)CCCC2=O)C(=O)C1
GI50 (DLD-1): > 100 µM (inactive) | GI50 (DMS-273): > 100 µM (inactive) | GI50 (HOP-18): > 100 µM (inactive) | GI50 (KM-20L2): > 100 µM (inactive) | GI50 (LXFL 529): > 100 µM (inactive) | GI50 (SNB-78): > 100 µM (inactive)
